Test results from PubChem BioAssay AID248 (DTP/NCI, 2004).
Inconclusive results and toxic doses are left out.

Test system: L1210 leukemia ip in BDF1 mice, survival T/C
Assay: NCI In Vivo Anticancer Drug Screen. Data for tumor model L1210 Leukemia (intraperitoneal) in B6D2F1 (BDF1) mice
Settings: endpoint: mean survival time, higher = longer survival
In short: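 Tumor was transplanted into mice, which were then dosed with test compound or vehicle alone. Survival was recorded for each group, and the treated figure was expressed relative to the control figure.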

[1] = dose: 100.0 mg/kg/injection, schedule: Q01DX001 (ip), vehicle: Klucel (hydroxypropylcellulose) (HPC)
[2] = dose: 200.0 mg/kg/injection, schedule: Q01DX001 (ip), vehicle: Klucel (hydroxypropylcellulose) (HPC)
[3] = dose: 400.0 mg/kg/injection, schedule: Q01DX001 (ip), vehicle: Klucel (hydroxypropylcellulose) (HPC)
[4] = dose: 100.0 mg/kg/injection, schedule: Q04DX002 (ip), vehicle: Klucel (hydroxypropylcellulose) (HPC)
[5] = dose: 200.0 mg/kg/injection, schedule: Q04DX002 (ip), vehicle: Klucel (hydroxypropylcellulose) (HPC)
[6] = dose: 400.0 mg/kg/injection, schedule: Q04DX002 (ip), vehicle: Klucel (hydroxypropylcellulose) (HPC)
[7] = dose: 5.0 mg/kg/injection, schedule: Q01DX001 (ip), vehicle: saline
[8] = dose: 10.0 mg/kg/injection, schedule: Q01DX001 (ip), vehicle: saline
[9] = dose: 20.0 mg/kg/injection, schedule: Q01DX001 (ip), vehicle: saline
[10] = dose: 40.0 mg/kg/injection, schedule: Q01DX001 (ip), vehicle: saline
[11] = dose: 100.0 mg/kg/injection, schedule: Q01DX001 (ip), vehicle: carboxymethylcellulose (CMC)
[12] = dose: 200.0 mg/kg/injection, schedule: Q01DX001 (ip), vehicle: carboxymethylcellulose (CMC)

Question: `CCC1(CCCCBr)OCCO1` was tested. Which T/C [1] did it give?
Answer: 103 % of control

Question: What about the T/C [2] of the same compound?
Answer: 100 % of control

Question: What about the T/C [3] of the same compound?
Answer: 93 % of control

Question: With `ClCC[N-]CC[N-]CCCl.ClCC[N-]CC[N-]CCCl.[O-][Cl+3]([O-])([O-])O.[Zn+2]` as the compound, how does the T/C (dose: 5.0 mg/kg/injection, schedule: Q01DX009 (ip), vehicle: Klucel (hydroxypropylcellulose) (HPC)) read?
Answer: 102 % of control

Question: What about the T/C (dose: 5.0 mg/kg/injection, schedule: Q03DX003 (ip), vehicle: saline) of the same compound?
Answer: 95 % of control

Question: And the T/C (dose: 5.0 mg/kg/injection, schedule: Q## X003 (ip), vehicle: saline)?
Answer: 95 % of control

Question: What about the T/C (dose: 9.0 mg/kg/injection, schedule: Q01DX009 (ip), vehicle: Klucel (hydroxypropylcellulose) (HPC)) of the same compound?
Answer: 94 % of control

Question: And the T/C (dose: 10.0 mg/kg/injection, schedule: Q01DX009 (ip), vehicle: Klucel (hydroxypropylcellulose) (HPC))?
Answer: 97 % of control

Question: What about the T/C (dose: 10.0 mg/kg/injection, schedule: Q03DX003 (ip), vehicle: saline) of the same compound?
Answer: 104 % of control

Question: And the T/C (dose: 10.0 mg/kg/injection, schedule: Q## X003 (ip), vehicle: saline)?
Answer: 104 % of control

Question: And the T/C (dose: 18.0 mg/kg/injection, schedule: Q01DX009 (ip), vehicle: Klucel (hydroxypropylcellulose) (HPC))?
Answer: 100 % of control

Question: And the T/C (dose: 20.0 mg/kg/injection, schedule: Q01DX009 (ip), vehicle: Klucel (hydroxypropylcellulose) (HPC))?
Answer: 116 % of control

Question: And the T/C (dose: 20.0 mg/kg/injection, schedule: Q03DX003 (ip), vehicle: saline)?
Answer: 121 % of control

Question: What about the T/C (dose: 20.0 mg/kg/injection, schedule: Q## X003 (ip), vehicle: saline) of the same compound?
Answer: 121 % of control

Question: And the T/C (dose: 40.0 mg/kg/injection, schedule: Q03DX003 (ip), vehicle: saline)?
Answer: 161 % of control

Question: And the T/C (dose: 40.0 mg/kg/injection, schedule: Q## X003 (ip), vehicle: saline)?
Answer: 161 % of control

Question: What about the T/C (dose: 80.0 mg/kg/injection, schedule: Q03DX003 (ip), vehicle: saline) of the same compound?
Answer: 80 % of control

Question: How did the T/C [1] turn out when `COC(=O)C(CCC#N)(CCC#N)C(C)=O` was run?
Answer: 96 % of control

Question: What about the T/C [2] of the same compound?
Answer: 91 % of control

Question: What about the T/C [3] of the same compound?
Answer: 89 % of control

Question: How did the T/C (dose: 100.0 mg/kg/injection, schedule: Q04DX003 (ip), vehicle: saline) turn out when `O=S(=O)(O)SCCNC1CCC(NCCSS(=O)(=O)O)CC1` (stereo not given) was run?
Answer: 105 % of control

Question: And the T/C (dose: 200.0 mg/kg/injection, schedule: Q04DX003 (ip), vehicle: saline)?
Answer: 116 % of control

Question: What about the T/C (dose: 400.0 mg/kg/injection, schedule: Q04DX003 (ip), vehicle: saline) of the same compound?
Answer: 114 % of control

Question: Which T/C (dose: 100.0 mg/kg/injection, schedule: Q01DX001 (ip), vehicle: other) does the source give for `O=[N+]([O-])c1ccc(N2CCCCC2)cc1` here?
Answer: 108 % of control

Question: What about the T/C (dose: 100.0 mg/kg/injection, schedule: Q04DX003 (ip), vehicle: Klucel (hydroxypropylcellulose) (HPC)) of the same compound?
Answer: 107 % of control

Question: And the T/C (dose: 200.0 mg/kg/injection, schedule: Q01DX001 (ip), vehicle: other)?
Answer: 90 % of control

Question: What about the T/C (dose: 200.0 mg/kg/injection, schedule: Q04DX003 (ip), vehicle: Klucel (hydroxypropylcellulose) (HPC)) of the same compound?
Answer: 104 % of control

Question: What about the T/C (dose: 222.0 mg/kg/injection, schedule: Q01DX Z (ip), vehicle: methylcellulose (MC)) of the same compound?
Answer: 102 % of control

Question: And the T/C (dose: 333.0 mg/kg/injection, schedule: Q01DX Z (ip), vehicle: methylcellulose (MC))?
Answer: 94 % of control

Question: And the T/C (dose: 400.0 mg/kg/injection, schedule: Q01DX001 (ip), vehicle: other)?
Answer: 103 % of control

Question: What about the T/C (dose: 400.0 mg/kg/injection, schedule: Q04DX003 (ip), vehicle: Klucel (hydroxypropylcellulose) (HPC)) of the same compound?
Answer: 107 % of control

Question: And the T/C (dose: 500.0 mg/kg/injection, schedule: Q01DX Z (ip), vehicle: methylcellulose (MC))?
Answer: 100 % of control

Question: How did the T/C (dose: 100.0 mg/kg/injection, schedule: Q04DX002 (ip), vehicle: other) turn out when `N#Cc1cc(Cl)cn1O` was run?
Answer: 91 % of control

Question: What about the T/C (dose: 200.0 mg/kg/injection, schedule: Q04DX002 (ip), vehicle: other) of the same compound?
Answer: 99 % of control

Question: For `O=S([O-])c1ccc(Cl)cc1.O=S([O-])c1ccc(Cl)cc1.[Zn+2]`, which T/C (dose: 75.0 mg/kg/injection, schedule: Q01DX001 (ip), vehicle: saline) is on record?
Answer: 101 % of control

Question: And the T/C (dose: 150.0 mg/kg/injection, schedule: Q01DX001 (ip), vehicle: saline)?
Answer: 101 % of control

Question: And the T/C (dose: 300.0 mg/kg/injection, schedule: Q01DX001 (ip), vehicle: saline)?
Answer: 110 % of control

Question: How did the T/C [4] turn out when `O=C(Nc1ccccc1F)OCCc1ccccn1` was run?
Answer: 102 % of control

Question: What about the T/C [5] of the same compound?
Answer: 105 % of control

Question: And the T/C [6]?
Answer: 91 % of control

Question: With `C1=COC(/C=N/Nc2nnc(N/N=C/C3CCC=CO3)c3ccccc23)CC1` (stereo not given) as the compound, how does the T/C [7] read?
Answer: 98 % of control

Question: And the T/C [8]?
Answer: 111 % of control

Question: What about the T/C [9] of the same compound?
Answer: 96 % of control

Question: What about the T/C [10] of the same compound?
Answer: 102 % of control

Question: Which T/C (dose: 75.0 mg/kg/injection, schedule: Q04DX003 (ip), vehicle: Klucel (hydroxypropylcellulose) (HPC)) does the source give for `COC(=O)NS(=O)(=O)/C=C/N1CCCC1=O` here?
Answer: 96 % of control

Question: And the T/C (dose: 150.0 mg/kg/injection, schedule: Q04DX003 (ip), vehicle: Klucel (hydroxypropylcellulose) (HPC))?
Answer: 100 % of control

Question: And the T/C (dose: 300.0 mg/kg/injection, schedule: Q04DX003 (ip), vehicle: Klucel (hydroxypropylcellulose) (HPC))?
Answer: 100 % of control

Question: For `NC(N)=N/N=C(\c1ccccc1)C(O)c1ccccc1` (stereo not given), which T/C (dose: 15.0 mg/kg/injection, schedule: Q01DX Z (ip), vehicle: carboxymethylcellulose (CMC)) is on record?
Answer: 106 % of control

Question: What about the T/C (dose: 30.0 mg/kg/injection, schedule: Q01DX Z (ip), vehicle: carboxymethylcellulose (CMC)) of the same compound?
Answer: 101 % of control

Question: And the T/C (dose: 60.0 mg/kg/injection, schedule: Q01DX Z (ip), vehicle: carboxymethylcellulose (CMC))?
Answer: 102 % of control

Question: What about the T/C (dose: 60.0 mg/kg/injection, schedule: Q01DX Z (oral), vehicle: carboxymethylcellulose (CMC)) of the same compound?
Answer: 96 % of control

Question: What about the T/C (dose: 120.0 mg/kg/injection, schedule: Q01DX Z (ip), vehicle: carboxymethylcellulose (CMC)) of the same compound?
Answer: 98 % of control

Question: And the T/C (dose: 120.0 mg/kg/injection, schedule: Q01DX Z (oral), vehicle: carboxymethylcellulose (CMC))?
Answer: 90 % of control

Question: What about the T/C (dose: 240.0 mg/kg/injection, schedule: Q01DX Z (oral), vehicle: carboxymethylcellulose (CMC)) of the same compound?
Answer: 90 % of control

Question: What about the T/C (dose: 480.0 mg/kg/injection, schedule: Q01DX Z (oral), vehicle: carboxymethylcellulose (CMC)) of the same compound?
Answer: 93 % of control

Question: How did the T/C [7] turn out when `O=C(O)C1=CC2C=C(Cl)C=CC2OC1=O` (stereo not given) was run?
Answer: 95 % of control

Question: What about the T/C [8] of the same compound?
Answer: 93 % of control

Question: And the T/C [9]?
Answer: 96 % of control

Question: And the T/C [10]?
Answer: 96 % of control

Question: What about the T/C (dose: 80.0 mg/kg/injection, schedule: Q01DX001 (ip), vehicle: saline) of the same compound?
Answer: 96 % of control

Question: What about the T/C (dose: 100.0 mg/kg/injection, schedule: Q01DX001 (ip), vehicle: saline) of the same compound?
Answer: 111 % of control

Question: What about the T/C (dose: 200.0 mg/kg/injection, schedule: Q01DX001 (ip), vehicle: saline) of the same compound?
Answer: 100 % of control

Question: With `Cc1cccn2c(=O)cc(Cl)nc12` as the compound, how does the T/C [11] read?
Answer: 96 % of control

Question: What about the T/C [12] of the same compound?
Answer: 98 % of control

Question: Which T/C (dose: 155.0 mg/kg/injection, schedule: Q01DX Z (ip), vehicle: methylcellulose (MC)) does the source give for `O=C(NCc1ccco1)Nc1ccccc1Cl` here?
Answer: 100 % of control

Question: What about the T/C (dose: 233.0 mg/kg/injection, schedule: Q01DX Z (ip), vehicle: methylcellulose (MC)) of the same compound?
Answer: 100 % of control

Question: What about the T/C (dose: 350.0 mg/kg/injection, schedule: Q01DX Z (ip), vehicle: methylcellulose (MC)) of the same compound?
Answer: 94 % of control

Question: What does the source list for `CCCCCCC(C)O[Si](C)OCC` (stereo not given)?
Answer: T/C (dose: 100.0 mg/kg/injection, schedule: Q04DX003 (ip), vehicle: saline with Tween-80): 95 % of control; T/C (dose: 200.0 mg/kg/injection, schedule: Q04DX003 (ip), vehicle: saline with Tween-80): 101 % of control; T/C (dose: 400.0 mg/kg/injection, schedule: Q04DX003 (ip), vehicle: saline with Tween-80): 96 % of control

Question: How did the T/C [11] turn out when `CCCCC(Cl)(CCCC)C(C)Sc1ccc([N+](=O)[O-])cc1` (stereo not given) was run?
Answer: 103 % of control

Question: And the T/C [12]?
Answer: 94 % of control

Question: And the T/C (dose: 400.0 mg/kg/injection, schedule: Q01DX001 (ip), vehicle: carboxymethylcellulose (CMC))?
Answer: 100 % of control

Question: Which T/C (dose: 12.5 mg/kg/injection, schedule: Q04DX002 (ip), vehicle: Klucel (hydroxypropylcellulose) (HPC)) does the source give for `NC(CSS(=O)(=O)O)=NCCc1ccccn1` here?
Answer: 100 % of control

Question: And the T/C (dose: 25.0 mg/kg/injection, schedule: Q04DX002 (ip), vehicle: Klucel (hydroxypropylcellulose) (HPC))?
Answer: 88 % of control

Question: And the T/C (dose: 50.0 mg/kg/injection, schedule: Q04DX002 (ip), vehicle: Klucel (hydroxypropylcellulose) (HPC))?
Answer: 91 % of control

Question: What about the T/C [6] of the same compound?
Answer: 90 % of control

Question: What does the source list for `O=C(COc1ccc(Cl)cc1Cl)Nc1ccc(S(=O)(=O)O)cc1`?
Answer: T/C [4]: 92 % of control; T/C [5]: 111 % of control; T/C [6]: 103 % of control
